Tested on: T1, oFluc
T1 construct: gene firefly luciferase; not fused to Venus
Test: luminescence intensity, luminometer, Michaelis-Menten fit
Format: biochemical, Pyrocoelia matsumurai
Conditions: 0.1 M citric acid/0.1 M Na2HPO4 pH 7.0, 1 mM ATP, 2 mM MgSO4, D-luciferin 0-990 µM; partially purified enzyme
Description: luminescence intensity, luminometer, Michaelis-Menten fit on oFluc | Km for oFluc or Venus/Akaluc for D-luciferin or AkaLumine were determined

Km: 31.9 µM
SMILES: O=C(O)[C@H]1CSC(c2nc3ccc(O)cc3s2)=N1 [D-luciferin]

— PMC10533401, “Development of two mouse strains conditionally expressing bright luciferases with distinct emission spectra as new tools for in vivo imaging” (Lab Animal, 2023)
